# Measurements: US8957078B2, “Compounds useful as inhibitors of ATR kinase” (Vertex Pharmaceuticals Incorporated, priority 2013, dated 2015)
# Columns and labels:
# [1] = tested on: HCT116 colorectal cancer cells; assay: Cisplatin Sensitization Assay (96 h cell viability MTS); assay type: cell-based; settings: concentration of compound required to reduce the IC50 of Cisplatin alone by at least 3-fold; HCT116, 96 h MTS
# Method in brief: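 HCT116 cells treated 96 h at 37 °C with compound and cisplatin together as a full matrix of 2-fold dilutions, each from 10 μM final top concentration. Viability by MTS, absorbance 490 nm. Value reported: compound concentration lowering cisplatin IC50 at least 3-fold.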
# [2] = target: T1, ATR kinase, in the presence of partner proteins ATRIP, CLK2 and TopBP1 (Homo sapiens, UniProt Q13535); assay: ATR-Complex Inhibition Assay (radioactive-phosphate incorporation); assay type: biochemical; settings: Ki(app); 4 nM full-length ATR, 40 nM ATRIP, 40 nM CLK2, 600 nM TopBP1(A891-S1105), 10 μM ATP, 25° C.
# T1 construct: in the presence of 4 nM full-length ATR, 40 nM full-length ATRIP
# T1 sequence (Q13535 whole entry): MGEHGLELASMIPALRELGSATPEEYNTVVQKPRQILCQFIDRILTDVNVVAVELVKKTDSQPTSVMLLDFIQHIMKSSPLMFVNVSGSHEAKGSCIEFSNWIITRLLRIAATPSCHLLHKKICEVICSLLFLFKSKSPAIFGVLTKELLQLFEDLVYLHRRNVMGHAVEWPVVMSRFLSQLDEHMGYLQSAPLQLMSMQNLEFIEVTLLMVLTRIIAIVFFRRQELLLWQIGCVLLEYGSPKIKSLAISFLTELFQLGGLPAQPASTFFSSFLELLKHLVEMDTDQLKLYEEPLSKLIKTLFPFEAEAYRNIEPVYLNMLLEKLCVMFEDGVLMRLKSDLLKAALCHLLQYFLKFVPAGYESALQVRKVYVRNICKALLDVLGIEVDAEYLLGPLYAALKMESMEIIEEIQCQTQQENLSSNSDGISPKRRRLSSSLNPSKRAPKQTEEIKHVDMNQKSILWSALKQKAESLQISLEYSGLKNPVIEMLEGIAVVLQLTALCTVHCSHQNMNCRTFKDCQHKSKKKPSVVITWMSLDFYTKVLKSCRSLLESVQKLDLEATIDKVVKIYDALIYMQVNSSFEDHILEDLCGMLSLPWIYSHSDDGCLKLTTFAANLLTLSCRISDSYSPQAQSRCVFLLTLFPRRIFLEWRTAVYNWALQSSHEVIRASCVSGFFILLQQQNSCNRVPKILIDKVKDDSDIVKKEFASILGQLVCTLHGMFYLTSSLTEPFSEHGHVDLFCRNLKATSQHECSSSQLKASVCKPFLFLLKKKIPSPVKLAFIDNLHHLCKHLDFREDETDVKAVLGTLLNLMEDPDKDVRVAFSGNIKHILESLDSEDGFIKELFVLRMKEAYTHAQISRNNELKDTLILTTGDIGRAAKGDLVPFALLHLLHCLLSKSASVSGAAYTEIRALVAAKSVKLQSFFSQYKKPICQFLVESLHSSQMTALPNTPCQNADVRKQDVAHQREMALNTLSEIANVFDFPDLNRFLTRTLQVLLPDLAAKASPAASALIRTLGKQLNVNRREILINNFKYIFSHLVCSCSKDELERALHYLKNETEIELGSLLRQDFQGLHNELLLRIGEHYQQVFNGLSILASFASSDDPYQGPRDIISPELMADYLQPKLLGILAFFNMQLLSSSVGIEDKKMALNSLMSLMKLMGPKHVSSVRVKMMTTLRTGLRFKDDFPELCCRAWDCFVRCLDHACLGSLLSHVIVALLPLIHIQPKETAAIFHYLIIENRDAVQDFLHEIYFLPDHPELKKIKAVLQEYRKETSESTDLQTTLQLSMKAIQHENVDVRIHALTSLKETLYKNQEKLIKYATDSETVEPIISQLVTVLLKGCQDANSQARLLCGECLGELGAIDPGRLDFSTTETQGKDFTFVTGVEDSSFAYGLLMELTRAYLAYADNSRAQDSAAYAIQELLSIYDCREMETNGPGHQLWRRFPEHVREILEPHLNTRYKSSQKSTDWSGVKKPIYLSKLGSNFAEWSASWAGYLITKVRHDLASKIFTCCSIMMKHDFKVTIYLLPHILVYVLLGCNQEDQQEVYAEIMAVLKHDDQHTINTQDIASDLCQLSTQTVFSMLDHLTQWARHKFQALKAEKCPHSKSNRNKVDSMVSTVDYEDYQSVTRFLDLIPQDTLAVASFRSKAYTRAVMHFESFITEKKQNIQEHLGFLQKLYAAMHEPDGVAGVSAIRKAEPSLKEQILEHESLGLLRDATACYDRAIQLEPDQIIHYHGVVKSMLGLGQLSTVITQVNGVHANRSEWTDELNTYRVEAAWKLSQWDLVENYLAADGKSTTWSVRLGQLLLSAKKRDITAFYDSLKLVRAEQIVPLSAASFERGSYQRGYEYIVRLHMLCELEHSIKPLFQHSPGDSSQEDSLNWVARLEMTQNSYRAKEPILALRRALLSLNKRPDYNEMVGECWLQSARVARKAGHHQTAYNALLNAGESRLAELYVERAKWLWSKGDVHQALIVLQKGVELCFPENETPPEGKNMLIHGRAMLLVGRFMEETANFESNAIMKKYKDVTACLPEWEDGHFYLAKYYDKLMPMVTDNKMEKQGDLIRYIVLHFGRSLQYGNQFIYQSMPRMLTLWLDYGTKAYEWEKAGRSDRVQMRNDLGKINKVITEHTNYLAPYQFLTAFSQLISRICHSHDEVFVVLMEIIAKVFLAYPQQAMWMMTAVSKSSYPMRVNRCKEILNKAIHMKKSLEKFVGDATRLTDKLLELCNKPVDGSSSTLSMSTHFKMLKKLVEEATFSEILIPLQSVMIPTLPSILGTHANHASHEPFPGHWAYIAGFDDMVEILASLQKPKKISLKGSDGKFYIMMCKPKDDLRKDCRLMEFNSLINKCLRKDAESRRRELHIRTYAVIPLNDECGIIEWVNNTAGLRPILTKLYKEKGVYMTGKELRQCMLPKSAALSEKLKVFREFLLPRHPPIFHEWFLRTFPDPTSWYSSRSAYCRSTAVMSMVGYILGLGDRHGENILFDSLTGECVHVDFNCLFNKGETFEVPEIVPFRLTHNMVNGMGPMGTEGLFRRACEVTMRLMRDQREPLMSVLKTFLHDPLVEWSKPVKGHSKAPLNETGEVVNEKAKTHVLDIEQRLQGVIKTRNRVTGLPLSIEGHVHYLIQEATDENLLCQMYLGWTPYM
# T1 sequence (Q8WXE1 whole entry partner): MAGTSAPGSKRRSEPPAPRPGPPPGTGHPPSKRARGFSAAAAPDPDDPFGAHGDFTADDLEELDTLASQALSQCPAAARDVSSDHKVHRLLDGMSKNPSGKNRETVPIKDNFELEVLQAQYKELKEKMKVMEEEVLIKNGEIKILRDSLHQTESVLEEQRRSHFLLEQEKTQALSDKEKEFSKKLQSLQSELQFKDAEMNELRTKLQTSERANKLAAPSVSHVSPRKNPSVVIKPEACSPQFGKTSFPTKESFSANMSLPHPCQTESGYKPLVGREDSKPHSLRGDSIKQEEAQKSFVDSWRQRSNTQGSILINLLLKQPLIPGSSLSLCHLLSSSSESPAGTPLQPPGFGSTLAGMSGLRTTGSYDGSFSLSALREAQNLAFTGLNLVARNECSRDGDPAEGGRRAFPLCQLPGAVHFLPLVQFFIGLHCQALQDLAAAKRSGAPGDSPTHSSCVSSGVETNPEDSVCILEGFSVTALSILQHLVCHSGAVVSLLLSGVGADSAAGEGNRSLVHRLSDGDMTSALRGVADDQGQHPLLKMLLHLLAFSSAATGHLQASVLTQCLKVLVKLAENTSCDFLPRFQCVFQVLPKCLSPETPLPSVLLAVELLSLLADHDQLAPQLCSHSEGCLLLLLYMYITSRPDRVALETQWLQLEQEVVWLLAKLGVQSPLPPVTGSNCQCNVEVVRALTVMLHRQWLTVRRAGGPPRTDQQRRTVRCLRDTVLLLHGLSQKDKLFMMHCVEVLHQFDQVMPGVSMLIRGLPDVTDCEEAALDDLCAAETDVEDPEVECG
# Procedure: Compounds were screened for their ability to inhibit ATR kinase, in the presence of partner proteins ATRIP, CLK2 and TopBP1, using a radioactive-phosphate incorporation assay. Assays were carried out in a mixture of 50 mM Tris/HCl (pH 7.5), 10 mM MgCl2 and 1 mM DTT. Final substrate concentrations were 10 μM [g-33P]ATP (3.5 μCi 33P ATP/nmol ATP, Perkin Elmer, Massachusetts, USA) and 800 μM target peptide (ASELPASQPQPFSAKKK (SEQ. ID NO: 1)), Isca Biochemicals, Cambridgeshire, UK).
# Assays were carried out at 25° C. in the presence of 4 nM full-length ATR, 40 nM full-length ATRIP, 40 nM full-length CLK2 and 600 nM TopBP1(A891-S1105). An enzyme stock buffer solution was prepared containing all of the reagents listed above, with the exception of target peptide, ATP and the test compound of interest. This enzyme stock was pre-incubated for 30 minutes at 25° C. […]
# After removing mean background values for all of the data points, Ki(app) data were calculated from non-linear regression analysis of the initial rate data using the Prism software package (GraphPad Prism version 6.0c for Macintosh, GraphPad Software Inc., San Diego, USA).
# [3] = target: T2, ATR kinase (full-length ATR) (Homo sapiens, UniProt Q13535); assay: ATR Inhibition Assay (radioactive-phosphate incorporation); assay type: biochemical; settings: Ki(app); 5 nM full-length ATR, 10 μM ATP, 800 μM target peptide, 25° C.
# T2 construct: in the presence of 5 nM full-length ATR
# T2 sequence (Q13535 whole entry): as the sequence (Q13535 whole entry) above
smiles,measurement,setting,value
"CN1CCN(C(=O)c2ccc(-c3cnncc3NC(=O)c3c(N)nn4cc(F)cnc34)cc2)CC1 [I-B-13, 2-amino-6-fluoro-N-(5-(4-(4-methylpiperazine-1-carbonyl)phenyl)pyridazin-4-yl)pyrazolo[1,5-a]pyrimidine-3-carboxamide]",Cisplatin Sensitization Assay,[1],++ (Compounds with a Cisplatin sensitization value >0.02 μM but <0.2 μM are marked with “++.”)
same,Ki,[2],< 10 nM
same,Ki,[3],10 to 1000 nM
"Nc1nn2cc(F)cnc2c1C(=O)Nc1ccncc1N1CCN(C2COC2)CC1 [I-C-1, 2-amino-6-fluoro-N-(3-(4-(oxetan-3-yl)piperazin-1-yl)pyridin-4-yl)pyrazolo[1,5-a]pyrimidine-3-carboxamide]",Cisplatin Sensitization Assay,[1],++ (Compounds with a Cisplatin sensitization value >0.02 μM but <0.2 μM are marked with “++.”)
same,Ki,[2],< 10 nM
same,Ki,[3],10 to 1000 nM
"Cc1nsc(NC(=O)c2c(N)nn3cc(F)cnc23)c1-c1ccccc1 [I-E-7, 2-amino-6-fluoro-N-(3-methyl-4-phenylisothiazol-5-yl)pyrazolo[1,5-a]pyrimidine-3-carboxamide]",Cisplatin Sensitization Assay,[1],+++ (Compounds with a Cisplatin sensitization value of <0.02 μM are marked with “+++.”)
same,Ki,[3],< 10 nM
Cc1nsc(NC(=O)c2c(N)nn3cc(F)cnc23)c1-c1ccnn1C [I-E-8],Cisplatin Sensitization Assay,[1],+++ (Compounds with a Cisplatin sensitization value of <0.02 μM are marked with “+++.”)
same,Ki,[3],10 to 1000 nM
"CC(=O)N1CC=C(c2c(C)nsc2NC(=O)c2c(N)nn3cc(F)cnc23)CC1 [I-E-9, N-(4-(1-acetyl-1,2,3,6-tetrahydropyridin-4-yl)-3-methylisothiazol-5-yl)-2-amino-6-fluoropyrazolo[1,5-a]pyrimidine-3-carboxamide]",Cisplatin Sensitization Assay,[1],+++ (Compounds with a Cisplatin sensitization value of <0.02 μM are marked with “+++.”)
same,Ki,[3],10 to 1000 nM
"Cc1nsc(NC(=O)c2c(N)nn3cc(F)cnc23)c1-n1cccn1 [I-E-10, 2-amino-6-fluoro-N-(3-methyl-4-(1H-pyrazol-1-yl)isothiazol-5-yl)pyrazolo[1,5-a]pyrimidine-3-carboxamide]",Cisplatin Sensitization Assay,[1],+++ (Compounds with a Cisplatin sensitization value of <0.02 μM are marked with “+++.”)
same,Ki,[3],< 10 nM
"Cc1nsc(NC(=O)c2c(N)nn3cc(F)cnc23)c1-c1cncnc1 [I-E-11, 2-amino-6-fluoro-N-(3-methyl-4-(pyrimidin-5-yl)isothiazol-5-yl)pyrazolo[1,5-a]pyrimidine-3-carboxamide]",Cisplatin Sensitization Assay,[1],++ (Compounds with a Cisplatin sensitization value >0.02 μM but <0.2 μM are marked with “++.”)
same,Ki,[3],10 to 1000 nM
"Cc1nsc(NC(=O)c2c(N)nn3cc(F)cnc23)c1-c1cnn(C)c1 [I-E-12, 2-amino-6-fluoro-N-(3-methyl-4-(1-methyl-1H-pyrazol-4-yl)isothiazol-5-yl)pyrazolo[1,5-a]pyrimidine-3-carboxamide]",Cisplatin Sensitization Assay,[1],++ (Compounds with a Cisplatin sensitization value >0.02 μM but <0.2 μM are marked with “++.”)
same,Ki,[3],10 to 1000 nM
"Cc1cc(-c2c(C)nsc2NC(=O)c2c(N)nn3cc(F)cnc23)ccn1 [I-E-13, 2-amino-6-fluoro-N-(3-methyl-4-(2-methylpyridin-4-yl)isothiazol-5-yl)pyrazolo[1,5-a]pyrimidine-3-carboxamide]",Cisplatin Sensitization Assay,[1],+++ (Compounds with a Cisplatin sensitization value of <0.02 μM are marked with “+++.”)
same,Ki,[3],10 to 1000 nM
"Cc1nsc(NC(=O)c2c(N)nn3cc(F)cnc23)c1-c1ccncc1 [I-E-14, 2-amino-6-fluoro-N-(3-methyl-4-(pyridin-4-yl)isothiazol-5-yl)pyrazolo[1,5-a]pyrimidine-3-carboxamide]",Cisplatin Sensitization Assay,[1],+++ (Compounds with a Cisplatin sensitization value of <0.02 μM are marked with “+++.”)
same,Ki,[3],10 to 1000 nM
"Cc1nsc(NC(=O)c2c(N)nn3cc(F)cnc23)c1CN1CCOCC1 [I-E-15, 2-amino-6-fluoro-N-(3-methyl-4-(morpholinomethyl)isothiazol-5-yl)pyrazolo[1,5-a]pyrimidine-3-carboxamide]",Cisplatin Sensitization Assay,[1],+++ (Compounds with a Cisplatin sensitization value of <0.02 μM are marked with “+++.”)
same,Ki,[3],10 to 1000 nM
"Cc1cc(-c2c(C)nsc2NC(=O)c2c(N)nn3cc(F)cnc23)n(C)n1 [I-E-16, 2-amino-N-(4-(1,3-dimethyl-1H-pyrazol-5-yl)-3-methylisothiazol-5-yl)-6-fluoropyrazolo[1,5-a]pyrimidine-3-carboxamide]",Cisplatin Sensitization Assay,[1],+++ (Compounds with a Cisplatin sensitization value of <0.02 μM are marked with “+++.”)
same,Ki,[3],10 to 1000 nM
"Cc1nsc(NC(=O)c2c(N)nn3cc(F)cnc23)c1CN1CCCC1 [I-E-17, 2-amino-6-fluoro-N-(3-methyl-4-(pyrrolidin-1-ylmethyl)isothiazol-5-yl)pyrazolo[1,5-a]pyrimidine-3-carboxamide]",Cisplatin Sensitization Assay,[1],+++ (Compounds with a Cisplatin sensitization value of <0.02 μM are marked with “+++.”)
same,Ki,[3],< 10 nM
"Cc1nn(C)cc1-c1c(C)nsc1NC(=O)c1c(N)nn2cc(F)cnc12 [I-E-18, 2-amino-N-(4-(1,3-dimethyl-1H-pyrazol-4-yl)-3-methylisothiazol-5-yl)-6-fluoropyrazolo[1,5-a]pyrimidine-3-carboxamide]",Cisplatin Sensitization Assay,[1],+++ (Compounds with a Cisplatin sensitization value of <0.02 μM are marked with “+++.”)
same,Ki,[3],10 to 1000 nM
"Cc1nsc(NC(=O)c2c(N)nn3cc(F)cnc23)c1CN1CCN(C)CC1 [I-E-19, 2-amino-6-fluoro-N-(3-methyl-4-((4-methylpiperazin-1-yl)methyl)isothiazol-5-yl)pyrazolo[1,5-a]pyrimidine-3-carboxamide]",Cisplatin Sensitization Assay,[1],+++ (Compounds with a Cisplatin sensitization value of <0.02 μM are marked with “+++.”)
same,Ki,[3],< 10 nM
"COCc1c(C)nsc1NC(=O)c1c(N)nn2cc(F)cnc12 [I-E-20, 2-amino-6-fluoro-N-(4-(methoxymethyl)-3-methylisothiazol-5-yl)pyrazolo[1,5-a]pyrimidine-3-carboxamide]",Cisplatin Sensitization Assay,[1],+++ (Compounds with a Cisplatin sensitization value of <0.02 μM are marked with “+++.”)
same,Ki,[3],10 to 1000 nM
"Cc1nsc(NC(=O)c2c(N)nn3cc(F)cnc23)c1N1CCCC1 [I-E-21, 2-amino-6-fluoro-N-(3-methyl-4-(pyrrolidin-1-yl)isothiazol-5-yl)pyrazolo[1,5-a]pyrimidine-3-carboxamide]",Cisplatin Sensitization Assay,[1],++ (Compounds with a Cisplatin sensitization value >0.02 μM but <0.2 μM are marked with “++.”)
same,Ki,[3],10 to 1000 nM
